US11427610B2, “Cyclic dinucleotides as anticancer agents” (BRISTOL-MYERS SQUIBB COMPANY, priority 2017, dated 2022)
Read-outs that look alike come from different tables or passages of the source.

Experiments:
[1] = biological target: T1, STING AQ: His-TVMV-S-hSTING(155-341)-G230A-R293Q (Homo sapiens, UniProt Q86WV6, G230A/H232R/R293Q); test: STING HTRF binding assay, STING AQ; details: 20 nM His-tagged STING cytoplasmic domain, 40 nM fluorescein-labeled cGAMP analog probe, one hour; read-out: HTRF Binding Assays IC50 (μM) STING AQ
T1 construct: His-TVMV-S-hSTING(155-341)-G230A-R293Q
T1 sequence (Q86WV6 with tags, fused parts or gaps G230A/H232R/R293Q): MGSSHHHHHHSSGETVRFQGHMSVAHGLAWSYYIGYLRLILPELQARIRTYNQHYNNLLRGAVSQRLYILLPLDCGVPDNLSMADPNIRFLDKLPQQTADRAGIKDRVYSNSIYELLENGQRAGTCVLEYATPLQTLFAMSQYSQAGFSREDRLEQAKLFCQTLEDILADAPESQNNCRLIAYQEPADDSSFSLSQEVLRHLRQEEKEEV
Protocol: (§1) A time resolved FRET-based competition binding assay was used to assess test article binding to STING WT and STING AQ. His-tagged STING cytoplasmic domain (WT or AQ) at a concentration of 20 nM was incubated with 2.5 nM Tb-labeled anti-His antibody, test compound, and fluorescein-labeled cGAMP analog probe (BioLog cat. no. C195) at a concentration of 200 nM (STING WT) or 40 nM (STING AQ) in PBS containing 0.005% Tween-20 and 0.1% BSA for one hour. Fluorescence at 495 nm and 520 nm was measured using an EnVision microplate reader to quantify FRET between Tb-labeled anti-His antibody and fluorescein-labeled probe. Background was defined as the signal obtained in the absence of STING protein, and background subtracted FRET ratios were normalized to the maximum signal obtained in the absence of test compound. These values were converted to a percent inhibition. Percent inhibition was determined for test compounds at 11 concentrations. The IC50, defined as the concentration of competing test compound needed to reduce specific binding of the probe by 50%, was calculated using the 4 parameter logistic equation to fit the data

[2] = biological target: T2, STING WT: His-TVMV-S-hSTING(155-341)-H232R (Homo sapiens, UniProt Q86WV6, H232R); test: STING HTRF binding assay, STING WT; details: 20 nM His-tagged STING cytoplasmic domain, 200 nM fluorescein-labeled cGAMP analog probe, one hour; read-out: HTRF Binding Assays IC50 (μM) STING WT
T2 construct: His-TVMV-S-hSTING(155-341)-H232R
T2 sequence (Q86WV6 with tags, fused parts or gaps H232R): as the sequence (Q86WV6 with tags, fused parts or gaps G230A/H232R/R293Q) above, with A99G, Q162R counted along it
Protocol: as §1

IRF3 = test: STING THP1 reporter assay, IRF pathway (Lucia luciferase); assay type: cell-based; details: THP1-Dual cells, 10% human plasma, 100% activation = 100 μM cGAMP, luciferase readout, read-out: THP1 Reporter Assays EC50 (μM) IRF3
Text: (§2) THP1-Dual™ cells were derived from the human THP-1 monocyte cell line by stable integration of two inducible reporter constructs. To this end, THP1-Dual™ cells allow the simultaneous study of the NF-κB pathway, by monitoring the activity of SEAP, and the IRF pathway by assessing the activity of a secreted luciferase (Lucia). Both reporter proteins are readily measurable in the cell culture supernatant when using QUANTI-Blue™, a SEAP detection reagent, and QUANTI-Luc™, a luciferase detection reagent.
(§3) THP1-Dual™ cells induce the activation of NF-κB in response to STING agonists. They also trigger the IRF pathway upon stimulation with STING agonists, such as cGAMP. Here, the THP-1-Dual cells were used to assess STING binders for function on the cellular level.
(§4) Serial dilutions of compounds in DMSO were added to low volume 384 well plates at 100 nl/well using an ECHO acoustic dispenser (Labcyte, model 550) to achieve final starting concentration of 100 μM in cell suspension. THP-1 Dual™ STING reporter cells (Invivogen, Dual cells cat #THPD-nfis) were added to the plates with compounds at 15,000 cells in 10 μL per well in RPMI media (Gibco, cat #11875) containing 10% human plasma in a low volume 384-well black wall clear bottom tissue culture plate (Corning, cat #3542) for SEAP assay and low volume solid white plate (Corning, cat #3826) for luciferase assay. One column of the plate was reserved for treatment with cGAMP at 100 μM for 100% activation calculation and one column for no treatment (DMSO only) for baseline activation. Plates were then incubated in 37° C. incubator at 5% CO2 for 20 hours.
(§5) In the SEAP assay, 5 μl of 2× QuantiBlue (Invivogen, cat #Rep-qb2) is added to 384 well black plates seeded with THP1 cells and incubated at 37° C. for 2 hours. Plates were read on the Envision (Perkin Elmer) at 620 nm wavelength (OD620). In the luciferase assay, 5 μl of Quantiluc (Invivogen, Rep-qlc2) is added to white 384 well plates seeded with THP1 cells and read at 5 minutes on the Envision (Perkin Elmer) using a luminescence protocol (RLU). For both cell lines, 100% activation was determined by value (RLU) of THP-1 Dual STING cells stimulated with 100 μM cGAMP (Invivogen, cat #TLRL-NACGA23-5).

NFkB = test: STING THP1 reporter assay, NF-κB pathway (SEAP); assay type: cell-based; details: THP1-Dual cells, 10% human plasma, 100% activation = 100 μM cGAMP, SEAP readout, read-out: THP1 Reporter Assays EC50 (μM) NFkB
Text: as §2, §3, §4, §5

| EC50 (IRF3; Homo sapiens, THP-1, 20 h) [µM] | EC50 (NFkB; Homo sapiens, THP-1, 20 h) [µM] | SMILES | IC50 [1] [µM] | IC50 [2] [µM] | EC50 (IRF3; 20 hours) [µM] | EC50 (NFkB; 20 hours) [µM] |
| --- | --- | --- | --- | --- | --- | --- |
|  |  | C#C[C@@H]1O[C@@H]2COP(=O)(S)O[C@H]3[C@@H](F)[C@H](n4cnc5c(N)ncnc54)O[C@@H]3COP(=O)(S)O[C@@H]1[C@@H]2O (single isomer, unassigned) [Example 1-2] | 0.03 | 1.7 | 24 | 42 |
|  |  | Nc1ncnc2c1ncn2[C@@H]1O[C@@H]2COP(O)(=S)O[C@@H]3[C@H](O)[C@@H](COP(O)(=S)O[C@H]2[C@H]1F)O[C@H]3C#Cc1cccnc1 (single isomer, unassigned) [Example 3-1] | 1.3 | 67.4 | > 100 | > 100 |
|  |  | Nc1ncnc2c1ncn2[C@@H]1O[C@@H]2COP(O)(=S)O[C@@H]3[C@H](O)[C@@H](COP(O)(=S)O[C@H]2[C@H]1F)O[C@H]3C#Cc1cccnc1 (single isomer, unassigned) [Example 3-3] | 0.04 | 1.1 | 6 | 8.1 |
|  |  | Nc1ncnc2c1ncn2[C@@H]1O[C@@H]2COP(O)(=S)O[C@@H]3[C@H](O)[C@@H](COP(O)(=S)O[C@H]2[C@H]1F)O[C@H]3C#Cc1ccccc1 (single isomer, unassigned) [Example 2-1] | 19.4 | > 100 | > 100 |  |
| > 100 | > 100 | C#C[C@@H]1O[C@@H]2COP(O)(=S)O[C@H]3[C@@H](F)[C@H](n4cnc5c(N)ncnc54)O[C@@H]3COP(O)(=S)O[C@@H]1[C@@H]2O (single isomer, unassigned) [Example 1-3] | 1.9 | 55.3 |  |  |
|  |  | Nc1ncnc2c1ncn2[C@@H]1O[C@@H]2COP(O)(=S)O[C@@H]3[C@H](O)[C@@H](COP(O)(=S)O[C@H]2[C@H]1F)O[C@H]3C#Cc1cccnc1 (single isomer, unassigned) [Example 3-2] | 0.2 | 3.4 | > 100 | > 100 |
| 23 | 37 | C#C[C@@H]1O[C@@H]2COP(=O)(S)O[C@H]3[C@@H](F)[C@H](n4cnc5c(N)ncnc54)O[C@@H]3COP(=O)(S)O[C@@H]1[C@@H]2O (single isomer, unassigned) [Example 1-1] | 0.06 | 1.4 |  |  |
|  |  | Nc1ncnc2c1ncn2[C@@H]1O[C@@H]2COP(O)(=S)O[C@@H]3[C@H](O)[C@@H](COP(O)(=S)O[C@H]2[C@H]1F)O[C@H]3C#Cc1cccnc1 (single isomer, unassigned) [Example 3-4] | 1.4 | 29.6 | > 100 | > 100 |
|  |  | Nc1ncnc2c1ncn2[C@@H]1O[C@@H]2COP(O)(=S)O[C@@H]3[C@H](O)[C@@H](COP(O)(=S)O[C@H]2[C@H]1F)O[C@H]3C#Cc1ccccc1 (single isomer, unassigned) [Example 2-4] | 17 | > 100 | > 100 |  |
|  |  | Nc1ncnc2c1ncn2[C@@H]1O[C@@H]2COP(O)(=S)O[C@@H]3[C@H](O)[C@@H](COP(O)(=S)O[C@H]2[C@H]1F)O[C@H]3C#Cc1ccccc1 (single isomer, unassigned) [Example 2-2] | 0.5 | 9.6 | > 100 |  |

| SMILES | EC50 (IRF3; Homo sapiens, THP-1, 20 h) [µM] | EC50 (NFkB; Homo sapiens, THP-1, 20 h) [µM] | IC50 [1] [µM] | IC50 [2] [µM] | EC50 (IRF3; 20 hours) [µM] | EC50 (NFkB; 20 hours) [µM] |
| --- | --- | --- | --- | --- | --- | --- |
| Nc1ncnc2c1ncn2[C@@H]1O[C@@H]2COP(O)(=S)O[C@@H]3[C@H](O)[C@@H](COP(O)(=S)O[C@H]2[C@H]1F)O[C@H]3C#Cc1ccccc1 (single isomer, unassigned) [Example 2-3] | > 100 | > 100 | 0.7 | 20.5 |  |  |
